Data from the NIST ThermoML archive (doi:10.1021/je1003065).
Numbers after ± are expanded uncertainties.

Experiment: mn = molality of the nth substance listed, in mol/kg
Settings: Liquid, Vibrating tube method

[Br-].[Li+] [lithium bromide] + CCO
Settings | mass density [kg/m3]
333.09 K, 10272 kPa, m1 = 2.272 | 902.05 ± 1.8
333.1 K, 20223 kPa, m1 = 1.462 | 864.16 ± 1.7
333.11 K, 2291 kPa, m1 = 1.462 | 848.63 ± 1.7
333.11 K, 9932 kPa, m1 = 1.462 | 855.51 ± 1.7
333.11 K, 29979 kPa, m1 = 1.462 | 871.75 ± 1.8
333.12 K, 5163 kPa, m1 = 1.462 | 851.27 ± 1.7
333.12 K, 39966 kPa, m1 = 1.462 | 878.97 ± 1.8
333.12 K, 49993 kPa, m1 = 1.462 | 885.74 ± 1.8
333.12 K, 59791 kPa, m1 = 1.462 | 891.94 ± 1.8
333.12 K, 69993 kPa, m1 = 1.462 | 898.03 ± 1.8
333.12 K, 79815 kPa, m1 = 1.462 | 903.61 ± 1.9
333.12 K, 89925 kPa, m1 = 1.462 | 909.13 ± 1.9
333.12 K, 100027 kPa, m1 = 1.462 | 914.48 ± 1.9
333.13 K, 2335 kPa, m1 = 2.272 | 895.03 ± 1.8
333.13 K, 10112 kPa, m1 = 0.5972 | 803.35 ± 1.6
333.13 K, 79924 kPa, m1 = 0.2335 | 831.2 ± 1.8
333.14 K, 1023 kPa, m1 = 0.2335 | 771.66 ± 1.6
333.14 K, 1618 kPa, m1 = 3.368 | 952.85 ± 1.9
333.14 K, 5026 kPa, m1 = 2.833 | 927.9 ± 1.9
333.14 K, 19985 kPa, m1 = 0.2335 | 789.05 ± 1.6
333.14 K, 40021 kPa, m1 = 2.833 | 953.59 ± 1.9
333.14 K, 80002 kPa, m1 = 2.833 | 976.7 ± 2
333.15 K, 1032 kPa, m1 = 2.833 | 924.49 ± 1.9
333.15 K, 1267 kPa, m1 = 0.9499 | 816.76 ± 1.6
333.15 K, 1305 kPa, m1 = 0.9499 | 816.8 ± 1.6
333.15 K, 2100 kPa, m1 = 0.5972 | 796.01 ± 1.6
333.15 K, 5177 kPa, m1 = 2.272 | 897.13 ± 1.8
333.15 K, 5214 kPa, m1 = 0.9499 | 820.56 ± 1.6
333.15 K, 5223 kPa, m1 = 0.5972 | 798.91 ± 1.6
333.15 K, 9985 kPa, m1 = 2.833 | 931.98 ± 1.9
333.15 K, 10026 kPa, m1 = 0.2335 | 780.15 ± 1.6
333.15 K, 19923 kPa, m1 = 0.9499 | 833.66 ± 1.7
333.15 K, 29942 kPa, m1 = 0.9499 | 841.73 ± 1.7
333.15 K, 29965 kPa, m1 = 2.833 | 946.88 ± 1.9
333.15 K, 40014 kPa, m1 = 0.9499 | 849.24 ± 1.7
333.15 K, 49925 kPa, m1 = 2.833 | 959.77 ± 1.9
333.15 K, 50021 kPa, m1 = 0.2335 | 812.76 ± 1.7
333.15 K, 50078 kPa, m1 = 0.9499 | 856.2 ± 1.8
333.15 K, 59924 kPa, m1 = 0.9499 | 862.57 ± 1.8
333.15 K, 60012 kPa, m1 = 0.2335 | 819.01 ± 1.7
333.15 K, 60159 kPa, m1 = 0.5972 | 841.68 ± 1.7
333.15 K, 69784 kPa, m1 = 2.833 | 971.18 ± 1.9
333.15 K, 69794 kPa, m1 = 0.9499 | 868.58 ± 1.8
333.15 K, 69985 kPa, m1 = 0.2335 | 825.32 ± 1.7
333.15 K, 79935 kPa, m1 = 0.9499 | 874.45 ± 1.8
333.15 K, 89956 kPa, m1 = 2.833 | 981.93 ± 2
333.15 K, 89965 kPa, m1 = 0.2335 | 837.01 ± 1.8
333.15 K, 89984 kPa, m1 = 0.9499 | 880.02 ± 1.8
333.15 K, 99907 kPa, m1 = 2.272 | 958.17 ± 1.9
333.15 K, 99958 kPa, m1 = 0.2335 | 842.17 ± 1.8
333.15 K, 99967 kPa, m1 = 2.833 | 987.14 ± 2
333.15 K, 99986 kPa, m1 = 0.9499 | 885.41 ± 1.9
333.16 K, 5021 kPa, m1 = 0.2335 | 775.49 ± 1.6
333.16 K, 19968 kPa, m1 = 2.833 | 939.71 ± 1.9
333.16 K, 20295 kPa, m1 = 0.5972 | 812.23 ± 1.6
333.16 K, 29945 kPa, m1 = 0.2335 | 797.44 ± 1.6
333.16 K, 29996 kPa, m1 = 0.5972 | 820.22 ± 1.7
333.16 K, 49994 kPa, m1 = 0.5972 | 835.21 ± 1.7
333.16 K, 59945 kPa, m1 = 2.833 | 965.67 ± 1.9
333.16 K, 69994 kPa, m1 = 0.5972 | 847.73 ± 1.8
333.16 K, 80063 kPa, m1 = 0.5972 | 854.04 ± 1.8
333.16 K, 89993 kPa, m1 = 0.5972 | 859.28 ± 1.8
333.16 K, 100035 kPa, m1 = 0.5972 | 864.08 ± 1.8
333.17 K, 39784 kPa, m1 = 0.2335 | 805.21 ± 1.7
333.17 K, 40191 kPa, m1 = 0.5972 | 828.11 ± 1.7
333.17 K, 89994 kPa, m1 = 2.272 | 952.98 ± 1.9
333.17 K, 99575 kPa, m1 = 3.368 | 1013.64 ± 2.1
333.18 K, 19918 kPa, m1 = 3.368 | 967.06 ± 1.9
333.18 K, 20737 kPa, m1 = 2.272 | 910.39 ± 1.8
333.18 K, 29946 kPa, m1 = 3.368 | 974.09 ± 1.9
333.18 K, 29993 kPa, m1 = 2.272 | 917.22 ± 1.8
333.18 K, 39652 kPa, m1 = 3.368 | 980.47 ± 2
333.18 K, 40158 kPa, m1 = 2.272 | 924.19 ± 1.9
333.18 K, 49954 kPa, m1 = 2.272 | 930.45 ± 1.9
333.18 K, 49993 kPa, m1 = 3.368 | 986.85 ± 2
333.18 K, 59593 kPa, m1 = 3.368 | 992.46 ± 2
333.18 K, 60271 kPa, m1 = 2.272 | 936.65 ± 1.9
333.18 K, 69927 kPa, m1 = 3.368 | 998.21 ± 2
333.18 K, 69979 kPa, m1 = 2.272 | 942.19 ± 1.9
333.18 K, 79359 kPa, m1 = 2.272 | 947.33 ± 1.9
333.18 K, 79861 kPa, m1 = 3.368 | 1003.51 ± 2
333.18 K, 89946 kPa, m1 = 3.368 | 1008.74 ± 2
333.19 K, 5051 kPa, m1 = 3.368 | 955.66 ± 1.9
333.19 K, 9894 kPa, m1 = 3.368 | 959.51 ± 1.9
348.13 K, 29954 kPa, m1 = 0.2335 | 785.62 ± 1.6
348.13 K, 59964 kPa, m1 = 2.833 | 956.11 ± 1.9
348.14 K, 9989 kPa, m1 = 2.833 | 920.29 ± 1.8
348.14 K, 10032 kPa, m1 = 0.2335 | 766.83 ± 1.6
348.14 K, 10035 kPa, m1 = 0.5972 | 790.37 ± 1.6
348.14 K, 19956 kPa, m1 = 2.272 | 898.47 ± 1.8
348.14 K, 19956 kPa, m1 = 3.368 | 955.83 ± 1.9
348.14 K, 29914 kPa, m1 = 0.5972 | 809.07 ± 1.6
348.14 K, 30021 kPa, m1 = 1.462 | 860.82 ± 1.7
348.14 K, 39925 kPa, m1 = 2.272 | 913.47 ± 1.8
348.14 K, 50012 kPa, m1 = 0.5972 | 824.77 ± 1.7
348.14 K, 69957 kPa, m1 = 3.368 | 988.75 ± 2
348.14 K, 79624 kPa, m1 = 2.272 | 938.32 ± 1.9
348.14 K, 89957 kPa, m1 = 0.5972 | 850.38 ± 1.8
348.15 K, 1002 kPa, m1 = 0.5972 | 781.38 ± 1.6
348.15 K, 1002 kPa, m1 = 3.368 | 940.13 ± 1.9
348.15 K, 1003 kPa, m1 = 2.272 | 881.25 ± 1.8
348.15 K, 1024 kPa, m1 = 0.2335 | 757.55 ± 1.5
348.15 K, 1035 kPa, m1 = 2.833 | 912.41 ± 1.8
348.15 K, 1304 kPa, m1 = 0.9499 | 803.97 ± 1.6
348.15 K, 2021 kPa, m1 = 1.462 | 835.77 ± 1.7
